# Data published in US9364479B2, “Use of a receptor-type kinase modulator for treating polycystic kidney disease” (SYMPHONY EVOLUTION, INC., priority 2010, dated 2016).
# How the values were obtained:
# [1] = human, in vivo
# [2] = system: Melatonin, Non-selective; experiment: NovaScreen assay; assay type: binding
# [3] = target: T1, Neurokinin, NK1 (Homo sapiens, UniProt P25103); experiment: NovaScreen assay; assay type: binding; settings: read-out: Inhibition, 10 μM XL-647
# T1 construct: NovaScreen
# [4] = system: Glutamate, AMPA Site; experiment: NovaScreen assay; assay type: binding
# [5] = system: Glutamate, Kainate Site; experiment: NovaScreen assay; assay type: binding
# [6] = target: T2, Monoamine Oxidase B, Peripheral (Rattus norvegicus, UniProt P19643); experiment: NovaScreen assay; assay type: biochemical; settings: read-out: Inhibition, 10 μM XL-647
# T2 construct: NovaScreen
# [7] = system: Adrenergic, Alpha 2, Non-selective; experiment: NovaScreen assay; assay type: binding
# [8] = target: T3, Muscarinic, M1 (Human Recombinant) (Homo sapiens, UniProt P11229); experiment: NovaScreen assay; assay type: binding
# T3 construct: NovaScreen
# [9] = target: T4, Acetylcholinesterase (Homo sapiens, UniProt P22303); experiment: NovaScreen assay; assay type: biochemical; settings: read-out: Inhibition, 10 μM XL-647
# T4 construct: NovaScreen
# [10] = target: T5, Choline Acetyltransferase (Homo sapiens, UniProt P28329); experiment: NovaScreen assay; assay type: biochemical; settings: read-out: Inhibition, 10 μM XL-647
# T5 construct: NovaScreen
# [11] = system: Adenosine, Non-selective; experiment: NovaScreen assay; assay type: binding
# [12] = system: Muscarinic, Non-selective, Peripheral; experiment: NovaScreen assay; assay type: binding
# [13] = system: Potassium Channel, Ca2+ Act., VI; experiment: NovaScreen assay; assay type: binding
# [14] = system: Galanin, Non-Selective; experiment: NovaScreen assay; assay type: binding
# [15] = human, in vivo; remark: listed apart in the source
# [16] = system: panel of 10 tyrosine kinases and 55 serine-threonine kinases; experiment: Kinase panel screen; assay type: biochemical; settings: incl. insulin and IGF-1 receptor, CDKs, SAPKs, PKC isoforms
# [17] = system: AKT phosphorylation (H1975 cells); experiment: Immunoblot analysis of H1975 cell lysates; assay type: cell-based, human
# Procedure: (§1) For the H1975 immunoblot studies, 3×10^5 cells were plated in each well (12-well plate) and incubated for 16 h in complete RPMI 1640, rinsed with fetal bovine serum-free RPMI 1640, and incubated with serial dilutions of test compounds in fetal bovine serum-free medium for 2 h followed by stimulation with 100 ng/mL human recombinant EGF for 10 min. Whole-cell protein lysates were prepared as described above and centrifuged for 10 min at 13,000×g at 4° C. to remove any insoluble material. Total protein was determined using bicinchoninic acid reagent and an equal amount of protein was combined with LDS loading buffer (Invitrogen) according to the manufacturer's instructions. Proteins were separated by gel electrophoresis on 4% to 15% polyacrylamide gels, transferred to nitrocellulose membranes, and detected by immunoblotting. Antibody:antigen complexes were detected using chemiluminescence. The following antibodies from Cell Signaling Technology were used at a 1:1,000 dilution: anti-EGFR, anti-pEGFR^Tyr1068, anti-AKT, anti-pAKT^Ser473, anti-ERK, and anti-pERK^Thr202/Tyr204. The anti-β-actin primary antibody (Accurate Chemical and Scientific) was used at 1:10,000 and the horseradish peroxidase-coupled secondary antibodies were purchased from Jackson ImmunoResearch and used at 1:5,000.
# [18] = system: ERK phosphorylation (H1975 cells); experiment: Immunoblot analysis of H1975 cell lysates; assay type: cell-based, human
# Procedure: as §1
# [19] = target: ErbB2 (Homo sapiens, UniProt P04626); experiment: Mechanism of action study / Ki determination; assay type: biochemical; set-up: residues Q679-V1255 of human ErbB2, Proqinase; purchased Proqinase
# Procedure: Enzymatic activity was measured by standard methods after dilution of the enzyme-inhibitor complex.
# Chain of ErbB2 (P04626 679-1255): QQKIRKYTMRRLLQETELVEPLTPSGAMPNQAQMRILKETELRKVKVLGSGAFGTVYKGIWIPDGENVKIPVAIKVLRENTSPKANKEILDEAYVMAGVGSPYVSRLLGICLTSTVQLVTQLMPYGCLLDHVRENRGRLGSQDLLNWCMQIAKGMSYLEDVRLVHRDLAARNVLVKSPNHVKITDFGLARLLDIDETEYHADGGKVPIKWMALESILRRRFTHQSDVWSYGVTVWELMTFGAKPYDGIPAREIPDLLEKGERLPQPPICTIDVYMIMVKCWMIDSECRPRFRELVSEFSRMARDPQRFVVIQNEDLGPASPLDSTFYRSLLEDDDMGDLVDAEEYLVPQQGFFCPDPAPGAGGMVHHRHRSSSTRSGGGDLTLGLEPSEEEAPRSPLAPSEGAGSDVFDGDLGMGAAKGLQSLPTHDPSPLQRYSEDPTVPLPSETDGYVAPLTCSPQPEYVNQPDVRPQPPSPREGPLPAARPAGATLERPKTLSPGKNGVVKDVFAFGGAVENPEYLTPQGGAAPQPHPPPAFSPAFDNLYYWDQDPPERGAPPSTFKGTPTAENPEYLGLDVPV
# T3 sequence (P11229 whole entry): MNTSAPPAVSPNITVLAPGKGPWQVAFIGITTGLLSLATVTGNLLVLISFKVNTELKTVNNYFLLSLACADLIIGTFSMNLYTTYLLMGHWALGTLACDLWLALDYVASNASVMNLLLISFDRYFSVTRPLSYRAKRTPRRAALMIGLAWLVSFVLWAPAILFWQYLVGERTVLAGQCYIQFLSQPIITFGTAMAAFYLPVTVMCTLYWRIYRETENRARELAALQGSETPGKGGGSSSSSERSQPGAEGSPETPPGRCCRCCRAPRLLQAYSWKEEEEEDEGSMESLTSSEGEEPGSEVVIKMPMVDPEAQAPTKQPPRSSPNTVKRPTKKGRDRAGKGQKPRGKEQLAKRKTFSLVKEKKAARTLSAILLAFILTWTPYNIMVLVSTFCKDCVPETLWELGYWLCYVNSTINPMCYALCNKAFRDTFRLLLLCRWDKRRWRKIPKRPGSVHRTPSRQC
# T5 sequence (P28329 whole entry): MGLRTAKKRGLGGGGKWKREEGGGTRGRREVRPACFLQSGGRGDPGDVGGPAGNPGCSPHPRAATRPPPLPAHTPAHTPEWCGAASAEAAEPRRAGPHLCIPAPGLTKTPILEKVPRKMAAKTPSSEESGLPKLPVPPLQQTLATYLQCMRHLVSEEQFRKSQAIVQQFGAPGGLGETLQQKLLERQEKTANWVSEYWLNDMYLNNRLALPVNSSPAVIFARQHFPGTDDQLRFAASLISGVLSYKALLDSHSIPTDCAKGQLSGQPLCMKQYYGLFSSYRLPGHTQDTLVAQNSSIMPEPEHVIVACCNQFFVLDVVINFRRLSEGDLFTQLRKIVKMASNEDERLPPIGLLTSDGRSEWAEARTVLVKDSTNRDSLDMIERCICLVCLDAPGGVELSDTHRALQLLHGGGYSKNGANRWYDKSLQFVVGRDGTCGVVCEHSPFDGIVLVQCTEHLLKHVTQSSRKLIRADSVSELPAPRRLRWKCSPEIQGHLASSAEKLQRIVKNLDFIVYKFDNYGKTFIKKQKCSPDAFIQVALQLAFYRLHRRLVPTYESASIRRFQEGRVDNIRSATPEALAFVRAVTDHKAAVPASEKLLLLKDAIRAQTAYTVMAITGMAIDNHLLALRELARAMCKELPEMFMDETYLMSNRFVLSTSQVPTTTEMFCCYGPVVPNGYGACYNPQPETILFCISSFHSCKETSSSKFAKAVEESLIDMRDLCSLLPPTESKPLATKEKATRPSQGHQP
# T4 sequence (P22303 32-614, species assumed): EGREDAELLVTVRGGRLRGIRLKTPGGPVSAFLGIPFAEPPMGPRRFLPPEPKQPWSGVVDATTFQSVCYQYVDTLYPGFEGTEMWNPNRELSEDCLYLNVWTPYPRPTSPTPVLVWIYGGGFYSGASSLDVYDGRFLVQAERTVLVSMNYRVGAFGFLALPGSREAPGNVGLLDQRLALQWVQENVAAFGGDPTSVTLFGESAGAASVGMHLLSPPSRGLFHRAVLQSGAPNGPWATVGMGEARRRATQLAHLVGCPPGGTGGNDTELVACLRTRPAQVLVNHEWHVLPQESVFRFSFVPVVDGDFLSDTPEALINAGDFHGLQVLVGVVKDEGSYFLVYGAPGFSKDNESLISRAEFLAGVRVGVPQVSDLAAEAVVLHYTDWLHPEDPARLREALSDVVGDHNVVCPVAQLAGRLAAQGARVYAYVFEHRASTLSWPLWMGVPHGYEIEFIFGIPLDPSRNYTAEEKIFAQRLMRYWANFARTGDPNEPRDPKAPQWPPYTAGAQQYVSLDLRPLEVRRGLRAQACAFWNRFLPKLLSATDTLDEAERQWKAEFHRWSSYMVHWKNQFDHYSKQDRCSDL
# T1 sequence (P25103 whole entry): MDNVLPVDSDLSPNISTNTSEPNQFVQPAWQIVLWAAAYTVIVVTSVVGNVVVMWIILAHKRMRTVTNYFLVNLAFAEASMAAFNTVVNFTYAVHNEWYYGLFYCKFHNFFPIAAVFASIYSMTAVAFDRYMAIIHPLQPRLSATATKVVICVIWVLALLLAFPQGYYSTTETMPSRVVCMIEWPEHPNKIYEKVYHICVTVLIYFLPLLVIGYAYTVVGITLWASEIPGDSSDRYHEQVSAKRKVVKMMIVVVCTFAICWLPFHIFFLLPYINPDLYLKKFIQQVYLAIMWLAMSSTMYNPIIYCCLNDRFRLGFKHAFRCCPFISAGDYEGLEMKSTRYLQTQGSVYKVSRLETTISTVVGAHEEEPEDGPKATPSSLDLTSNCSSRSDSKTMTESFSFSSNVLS
# T2 sequence (P19643 whole entry): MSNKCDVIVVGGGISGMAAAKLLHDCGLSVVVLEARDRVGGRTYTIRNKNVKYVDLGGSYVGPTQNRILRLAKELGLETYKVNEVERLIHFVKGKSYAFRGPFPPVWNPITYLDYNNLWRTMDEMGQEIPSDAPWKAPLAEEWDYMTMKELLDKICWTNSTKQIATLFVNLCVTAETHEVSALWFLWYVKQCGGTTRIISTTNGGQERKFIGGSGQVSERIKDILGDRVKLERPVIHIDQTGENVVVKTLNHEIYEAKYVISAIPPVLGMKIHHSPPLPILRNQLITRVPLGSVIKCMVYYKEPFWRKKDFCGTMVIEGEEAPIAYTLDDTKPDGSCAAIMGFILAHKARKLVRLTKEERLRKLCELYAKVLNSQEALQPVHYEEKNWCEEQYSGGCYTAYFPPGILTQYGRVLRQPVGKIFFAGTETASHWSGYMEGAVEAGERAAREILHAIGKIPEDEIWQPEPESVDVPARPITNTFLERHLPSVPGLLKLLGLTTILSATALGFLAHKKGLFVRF
compound,measurement,setting,value
"COc1cc2c(Nc3ccc(Cl)c(Cl)c3F)ncnc2cc1OC[C@@H]1C[C@@H]2CN(C)C[C@@H]2C1 [XL-647, N-(3,4-dichloro-2-fluorophenyl)-7-({[(3aR,5r,6aS)-2-methyloctahydrocyclopenta[c]pyrrol-5-yl]methyl}oxy)-6-(methyloxy)quinazolin-4-amine]","dose proportionality of AUC and Cmax, in words",[1],generally increased in proportion with dose
same,"Inhibition, 10 μM XL-647",[2],0.18%
same,inhibition at 10 µM,[3],20.4%
same,"Inhibition, 10 μM XL-647",[4],10.79%
same,"Inhibition, 10 μM XL-647",[5],0.89%
same,inhibition at 10 µM,[6],2.03%
same,IC50,[7],1800 nM
same,"Inhibition, 10 μM XL-647",[7]; 10 μM,84.56%
same,IC50,[8],2330 nM
same,inhibition at 10 µM,"[8]; read-out: Inhibition, 10 μM XL-647",98.1%
same,inhibition at 10 µM,[9],49.4%
same,inhibition at 10 µM,[10],1.27%
same,"Inhibition, 10 μM XL-647",[11],47.89%
same,IC50,[12],2650 nM
same,"Inhibition, 10 μM XL-647",[12]; 10 μM,87.74%
same,"Inhibition, 10 μM XL-647",[13],17.02%
same,"Inhibition, 10 μM XL-647",[14],1.57%
same,most common adverse events (frequency ≧10%),[15],"diarrhea, rash, fatigue, nausea, dry skin, cough, dyspnoea, anorexia, electrocardiogram QT prolongation (machine-read), vomiting, constipation, dysgeusia, upper respiratory tract infection, abdominal pain, back pain, pyrexia, dizziness, and dry mouth"
same,"activity against kinase panel, in words",[16],inactive
same,"phosphorylation of AKT, immunoblot",[17],inhibits the phosphorylation of AKT and ERK
same,"phosphorylation of ERK, immunoblot",[18],inhibits the phosphorylation of AKT and ERK
same,ATP-Competitive,[19],Yes
same,Ki,[19],3 nM
same,Reversible,[19],Yes
